Results published in ChEMBL document CHEMBL1201862, “PubChem BioAssay data set” (2004).
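Tested at 5 concentrations; 48 h exposure; 96-well plates; endpoints linearly interpolated, else capped at highest concentration. Here, GI50 denotes the concentration required for 50% inhibition of growth.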 Active and inactive are the calls of the source. Cut-off read from the data, not from the text of the source: active = GI50 up to about 1.1 µM and inactive = higher.

Assays:
Experiment in all cases: DTP human tumour cell line panel, 48 h
[1] = test system: A498
[2] = test system: A549
[3] = test system: COLO 205
[4] = test system: HOP-92
[5] = test system: HT-29
[6] = test system: Hs-578T
[7] = test system: K562
[8] = test system: MCF7
[9] = test system: MOLT-4
[10] = test system: Malme-3M
[11] = test system: NCI-H522
[12] = test system: NCI/ADR-RES
[13] = test system: OVCAR-3
[14] = test system: OVCAR-4
[15] = test system: OVCAR-5
[16] = test system: PC-3
[17] = test system: SN12C
[18] = test system: UACC-257
[19] = test system: UACC-62
[20] = test system: UO-31

Row | Structure (SMILES) | GI50 [1] | GI50 [2] | GI50 [3] | GI50 [4] | GI50 [5] | GI50 [6] | GI50 [7] | GI50 [8] | GI50 [9] | GI50 [10] | GI50 [11] | GI50 [12] | GI50 [13] | GI50 [14] | GI50 [15] | GI50 [16] | GI50 [17] | GI50 [18] | GI50 [19] | GI50 [20]
1 | C=CCc1c(Cl)nc(Cl)nc1Cl | 1.94 µM (inactive) | 2.04 µM (inactive) | 0.195 µM (active) | 0.255 µM (active) | 0.266 µM (active) | 0.368 µM (active) | < 0.0151 µM (active) | 0.185 µM (active) | 0.0102 µM (active) | 0.159 µM (active) | < 0.0191 µM (active) | 0.853 µM (active) | 0.161 µM (active) | 0.243 µM (active) | 0.678 µM (active) | 0.733 µM (active) | 0.258 µM (active) | 0.641 µM (active) | 0.333 µM (active) | 0.0748 µM (active)
2 | COC(=O)CC1c2ccccc2N2C(=O)Cc3c([nH]c4ccccc34)C12 (stereo not given) | > 100 µM (inactive) | > 100 µM (inactive) | > 100 µM (inactive) | 55.8 µM (inactive) | > 100 µM (inactive) | 25.4 µM (inactive) | 35.8 µM (inactive) | 34.8 µM (inactive) | > 100 µM (inactive) | 66.5 µM (inactive) | > 100 µM (inactive) | > 100 µM (inactive) | > 100 µM (inactive) | 31.4 µM (inactive) | > 100 µM (inactive) | > 100 µM (inactive) | > 100 µM (inactive) | > 100 µM (inactive) | > 100 µM (inactive) | > 100 µM (inactive)
3 | COC(=O)c1ccc2c(c1)CC1(C2)Cc2cc3c(c(C(=O)OC)c2C1)CCCC3 (stereo not given) | 32.5 µM (inactive) | 83.9 µM (inactive) | 49.4 µM (inactive) | 22.4 µM (inactive) | 55.7 µM (inactive) | > 100 µM (inactive) | 41.1 µM (inactive) | 68.5 µM (inactive) | 42.7 µM (inactive) | > 100 µM (inactive) | > 100 µM (inactive) | 82.8 µM (inactive) | 18.3 µM (inactive) | 50.5 µM (inactive) | > 100 µM (inactive) | 54.1 µM (inactive) | 50.1 µM (inactive) | 48.4 µM (inactive) | 37.1 µM (inactive) | > 100 µM (inactive)
4 | CC(=O)O[C@H]1C(=O)[C@@]2(C)[C@H]([C@H](OC(=O)c3cccc(C(F)(F)F)c3)[C@]3(O)C[C@H](OC(=O)[C@H](O)[C@@H](NC(=O)c4ccccc4)c4ccccc4)C(C)=C1C3(C)C)[C@]1(OC(C)=O)CO[C@@H]1C[C@@H]2O | 0.131 µM (active) | 0.00261 µM (active) | < 0.0025 µM (active) | 0.52 µM (active) | < 0.0025 µM (active) | < 0.0025 µM (active) | < 0.0025 µM (active) | < 0.0025 µM (active) | 0.00427 µM (active) | 0.00318 µM (active) | < 0.0025 µM (active) | 1.4 µM (inactive) | < 0.0025 µM (active) | 0.336 µM (active) | 0.00475 µM (active) | < 0.0025 µM (active) | 0.00603 µM (active) | 0.108 µM (active) | 0.00526 µM (active) | 0.918 µM (active)
